The target in test [1] is human ATX (Homo sapiens (Human), UniProt Q13822). Put plainly: Human ATX enzyme inhibition assay (fluorescence quenching, MR121 substrate). Format: biochemical. In a few lines: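 Human His-tagged ATX (30 nM final) preincubated 15 min at 30 °C with serially diluted compounds in Tris buffer pH 8.0 with Ca2+, Mg2+ and 0.01% Triton X-100. MR121/tryptophan-labelled substrate analogue (1 μM final) then added for 15 min at 30 °C; cleavage read by fluorescence dequenching.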

Test [2] has as its target Human carbonic anhydrase II (hCA-II) (Homo sapiens (Human), UniProt P00918). Put plainly: Human carbonic anhydrase-II inhibition assay (absorbance, 4-nitrophenyl acetate substrate). The format is biochemical.
The mark [3] stands for this setting: human His-tagged ATX 30 nM, MR121 substrate 1 μM, 30° C., read-out: ATX IC50.
The mark [4] stands for this setting: hCA II 8 nM, 4-NPA 2.5 mM, absorbance 340 nm, room temperature 1 hour, read-out: CA-II IC50.

Molecules are shown by their SMILES. Where two headings read alike, the source gives them in different places.

For the compound `CC(C)(C)C(=O)Nc1ccc(Cl)nc1COC(=O)N1CC2=C(C1)CN(C(=O)c1ccc(S(N)(=O)=O)c(F)c1)C2` [Example 1.21, [6-chloro-3-(2,2-dimethylpropanoylamino)pyridin-2-yl]methyl 2-(3-fluoro-4-sulfamoylbenzoyl)-1,3,4,6-tetrahydropyrrolo[3,4-c]pyrrole-5-carboxylate], the concentration for half-maximal inhibition (IC50) was 12 nM in test [1] (setting [3]) and 3 nM in test [2] (setting [4]).
For `CC(C)(C)C(=O)Nc1cc(C(F)(F)F)cnc1COC(=O)N1CC2=C(C1)CN(C(=O)c1c(F)cc(S(N)(=O)=O)cc1F)C2` [Example 1.11, [3-(2,2-dimethylpropanoylamino)-5-(trifluoromethyl)pyridin-2-yl]methyl 2-(2,6-difluoro-4-sulfamoylbenzoyl)-1,3,4,6-tetrahydropyrrolo[3,4-c]pyrrole-5-carboxylate], the IC50 in test [1] (setting [3]) stood at 9 nM; in test [2] (setting [4]), 27 nM.
As to `CN1CCC(COc2cc(C(=O)N3CC4=C(C3)CN(C(=O)c3ccc(S(N)(=O)=O)c(F)c3F)C4)cc(C3CC3)n2)CC1` [Example 1.34, 4-[5-[2-cyclopropyl-6-[(1-methylpiperidin-4-yl)methoxy]pyridine-4-carbonyl]-1,3,4,6-tetrahydropyrrolo[3,4-c]pyrrole-2-carbonyl]-2,3-difluorobenzenesulfonamide], the figures for the IC50 in test [1] and in test [2] were 12 nM and 1 nM, respectively.
The like results for `NS(=O)(=O)c1ccc(C(=O)N2CC3=C(CN(C(=O)OCc4ccc(OC(F)(F)F)cc4)C3)C2)cc1` [Example 1.06, 4-(trifluoromethoxy)benzyl 5-(4-sulfamoylbenzoyl)-3,4,5,6-tetrahydropyrrolo[3,4-c]pyrrole-2(1H)-carboxylate] were, in that order, 5 nM and 10 nM.
`CC(C)(C)C(=O)Nc1ccc(Cl)nc1COC(=O)N1CC2=C(C1)CN(C(=O)c1c(F)cc(S(N)(=O)=O)cc1F)C2` [Example 1.23, [6-chloro-3-(2,2-dimethylpropanoylamino)pyridin-2-yl]methyl 2-(2,6-difluoro-4-sulfamoylbenzoyl)-1,3,4,6-tetrahydropyrrolo[3,4-c]pyrrole-5-carboxylate]: the half-maximal inhibitory concentration (IC50) in test [1] (setting [3]) stood at 10 nM; in test [2] (setting [4]), 1 nM.
Turning to `Cc1cnn(Cc2cc(C(F)(F)F)ccc2CCC(=O)N2CC3=C(C2)CN(C(=O)c2ccc(S(N)(=O)=O)cc2F)C3)n1` [Example 3.08, 3-fluoro-4-[2-[3-[2-[(4-methyltriazol-2-yl)methyl]-4-(trifluoromethyl)phenyl]propanoyl]-1,3,4,6-tetrahydropyrrolo[3,4-c]pyrrole-5-carbonyl]benzenesulfonamide], the IC50 in test [1] is 1 nM; in test [2], 6 nM.
For `NS(=O)(=O)c1ccc(C(=O)N2CC3=C(CN(C(=O)/C=C/c4ccc(OC(F)(F)F)cc4)C3)C2)nc1` [Example 3.03, 6-[2-[(E)-3-[4-(trifluoromethoxy)phenyl]prop-2-enoyl]-1,3,4,6-tetrahydropyrrolo[3,4-c]pyrrole-5-carbonyl]pyridine-3-sulfonamide], in that order: 4 nM and 17 nM.
Turning to `Cc1nnn(Cc2cc(C(F)(F)F)ccc2CCC(=O)N2CC3=C(C2)CN(C(=O)c2ccc(S(N)(=O)=O)cc2F)C3)n1` [Example 1.10, 3-fluoro-4-(5-(3-(2-((5-methyl-2H-tetrazol-2-yl)methyl)-4-(trifluoromethyl)phenyl)propanoyl)-1,2,3,4,5,6-hexahydropyrrolo[3,4-c]pyrrole-2-carbonyl)benzenesulfonamide], the IC50 in test [1] (setting [3]) was 8 nM; in test [2] (setting [4]), 19 nM.
In the case of `CC(C)(C)C(=O)Nc1cc(Cl)cnc1COC(=O)N1CC2=C(C1)CN(C(=O)c1c(F)cc(S(N)(=O)=O)cc1F)C2` [Example 1.15, [5-chloro-3-(2,2-dimethylpropanoylamino)pyridin-2-yl]methyl 2-(2,6-difluoro-4-sulfamoylbenzoyl)-1,3,4,6-tetrahydropyrrolo[3,4-c]pyrrole-5-carboxylate], the IC50 in test [1] (setting [3]) came to 8 nM; in test [2] (setting [4]), 12.9 nM.
In the case of `CC(C)(C)C(=O)Nc1ccc(Cl)nc1COC(=O)N1CC2=C(C1)CN(C(=O)c1cc(F)c(S(N)(=O)=O)cc1F)C2` [Example 1.20, [6-chloro-3-(2,2-dimethylpropanoylamino)pyridin-2-yl]methyl 2-(2,5-difluoro-4-sulfamoylbenzoyl)-1,3,4,6-tetrahydropyrrolo[3,4-c]pyrrole-5-carboxylate], the IC50 was 15 nM in test [1] (setting [3]) and 2 nM in test [2] (setting [4]).
`NS(=O)(=O)c1ccc(C(=O)N2CCC3=C(CCN(C(=O)OCc4ccc(OC(F)(F)F)cc4)C3)C2)c(F)c1` [Example 2.01, [4-(trifluoromethoxy)phenyl]methyl 6-(2-fluoro-4-sulfamoylbenzoyl)-1,3,4,5,7,8-hexahydro-2,6-naphthyridine-2-carboxylate]: the IC50 was determined as 14 nM in test [1] and 18 nM in test [2].
Turning to `CC(C)(C)C(=O)Nc1cc(C(F)(F)F)cnc1COC(=O)N1CC2=C(C1)CN(C(=O)c1ncc(S(N)(=O)=O)cc1F)C2` [Example 1.32, [3-(2,2-dimethylpropanoylamino)-5-(trifluoromethyl)pyridin-2-yl]methyl 2-(3-fluoro-5-sulfamoylpyridine-2-carbonyl)-1,3,4,6-tetrahydropyrrolo[3,4-c]pyrrole-5-carboxylate], the values for the half-maximal inhibitory concentration (IC50) in test [1] and in test [2] were 5 nM and 2.5 nM, respectively.
As to `CC(C)(C)C(=O)Nc1cc(Cl)cnc1COC(=O)N1CC2=C(C1)CN(C(=O)c1ccc(S(N)(=O)=O)c(F)c1F)C2` [Example 1.14, [5-chloro-3-(2,2-dimethylpropanoylamino)pyridin-2-yl]methyl 2-(2,3-difluoro-4-sulfamoylbenzoyl)-1,3,4,6-tetrahydropyrrolo[3,4-c]pyrrole-5-carboxylate], the 50% inhibitory concentration (IC50) stood at 15 nM in test [1] (setting [3]) and 16.6 nM in test [2] (setting [4]).
